The source of these data is patent US20250289827A1, “MORPHIC FORMS OF A MUTANT BRAF DEGRADER AND METHODS OF MANUFACTURE THEREOF” (C4 THERAPEUTICS, INC., priority 2022, published 2025).

Counter-ions that a name gives are not always drawn. Like-named read-outs stand apart in the source and are kept apart here.

A short description of data set [1]: Equilibration under a temperature cycle (XRPD). Conditions: 2-methyltetrahydrofuran, about 8 cycles. It is filed as physicochemical. On the procedure: The equilibration was executed with a stirring bar on a magnetic stirring plate at a rate of 300 rpm. The obtained suspensions were filtered through a 0.45 µm nylon membrane filter by centrifugation at 14,000 rpm. Solid parts (wet cakes) were investigated by XRPD.

A short description of data set [2]: Characterization of salt forms (XRPD, DSC, TGA, KF, HPLC, NMR/IC). It is filed as physicochemical. The following applies: for Melting onset (DCS, ° C.): Tonset. On the procedure:
Salt Forms identified in the investigation (Table 16) were further characterized by XRPD, DCS, TGA, KF, HPLC and ^1H NMR/IC (Table 19).
About 419 mg of sodium salt Form F was obtained as off-white solid in 76% yield.

In the case of `CCN(C)S(=O)(=O)Nc1ccc(F)c(Oc2ccc3ncn([C@H]4COC5(CCN(C(=O)CC6(O)CCN(c7cc8c(cc7F)c(N7CCC(=O)NC7=O)nn8C)CC6)CC5)C4)c(=O)c3c2)c1C#N` [Compound 1 Form C], the “Form conversion on temperature cycling” value is recorded as “converted to more stable Form B” in data set [1] and “converted to anhydrate Form B” in data set [1] (listed as Form C).
In the case of `CCN(C)S(=O)(=O)[N-]c1ccc(F)c(Oc2ccc3ncn([C@H]4COC5(CCN(C(=O)CC6(O)CCN(c7cc8c(cc7F)c(N7CCC(=O)NC7=O)nn8C)CC6)CC5)C4)c(=O)c3c2)c1C#N.[Na+]` [Compound 1 sodium salt Form E], in data set [2] (listed as Sodium salt Form E), the “Melting onset (DCS, ° C.)” value was “Tonset 228.7 °C”; the “Enthalpy (DSC, J/g)” value amounted to 26.01 J/g; the “Water content (by KF)” value worked out at 10.2% by % by weight. Further, in data set [2] (at 180° C.), the “Weight loss (TGA)” value is given as 10.8% at.
As for `CCN(C)S(=O)(=O)Nc1ccc(F)c(Oc2ccc3ncn([C@H]4COC5(CCN(C(=O)CC6(O)CCN(c7cc8c(cc7F)c(N7CCC(=O)NC7=O)nn8C)CC6)CC5)C4)c(=O)c3c2)c1C#N` [Compound 1 potassium salt Form H], in data set [2], the “Enthalpy (DSC, J/g)” value is listed as 33.48 J/g and the “Melting onset (DCS, ° C.)” value was “Tonset 221.7 °C”. In addition, the “Weight loss (TGA)” value in data set [2] (at 170° C.) was found to be 6.6% at.
`CCN(C)S(=O)(=O)[N-]c1ccc(F)c(Oc2ccc3ncn([C@H]4COC5(CCN(C(=O)CC6(O)CCN(c7cc8c(cc7F)c(N7CCC(=O)NC7=O)nn8C)CC6)CC5)C4)c(=O)c3c2)c1C#N.[K+]` [Compound 1 potassium salt Form G]: the entries for the “Weight loss (TGA)” value in data set [2] (at 170° C.) and in data set [2] (at 170° C.-230° C.) were 4.5% at 170° C., and 4.8% at 170° C.-, respectively.
As to `CCN(C)S(=O)(=O)[N-]c1ccc(F)c(Oc2ccc3ncn([C@H]4COC5(CCN(C(=O)CC6(O)CCN(c7cc8c(cc7F)c(N7CCC(=O)NC7=O)nn8C)CC6)CC5)C4)c(=O)c3c2)c1C#N.[Na+]` [Compound 1 sodium salt Form D], in data set [2] (listed as Sodium salt Form D), the “Melting onset (DCS, ° C.)” value was “Tonset 229.5 °C” and the “Enthalpy (DSC, J/g)” value was determined as 27.83 J/g. The “Weight loss (TGA)” value in data set [2] (at 150° C.) was determined as 6.9% at.
